Laboratory results reported in patent US20220324796A1, “ANTIBIOTIC COMPOUNDS” (The General Hospital Corporation, priority 2019, published 2022).
≈ marks a conversion by molar mass, not a printed value.

Legend:
[1] = tested on: stationary-phase MRSA MW2 persisters; test: Persister killing assay; type: cell-based, S. aureus
Description: Persister killing assay. […] Persister cells of MRSA MW2 or VRSA VRS1 were prepared by growing cultures overnight to stationary phase at 37° C. at 200 rpm and washing three times with PBS. 1 mL of ˜1×10^8 CFU/mL MRSA persisters was added to 1 mL of PBS containing a 2-fold higher concentration of the desired concentration of antibiotics in a 96-well assay block (Corning Costar 3960). For assays with daptomycin, PBS was supplemented with 50 μg/mL CaCl2. The assay block was incubated at 37° C. with shaking at 200 rpm. At various times, 400 μl samples were removed, washed once with PBS, serially diluted and spot-plated on TSA plates. Colonies were counted after overnight incubation at 37° C. to determine the titer of live cells. These experiments were conducted in triplicate.

S. aureus MW2 [2] = test: Transmission electron microscopy; type: cell-based; details: 10× MIC, 2 h
Description: Transmission electron microscopy. S. aureus MW2 was grown to exponential phase (OD600=˜0.4) at 37° C. Bacterial cultures were then treated with 10× MIC of bithionol or 0.1% DMSO (control) at 37° C. for 2 h. 1 mL of the treated bacterial samples were fixed with the same volume of a 2× fixative, a mixture of 5% glutaraldehyde, 2.5% paraformaldehyde and 0.06% picric acid in 0.2 M sodium cacodylate buffer (pH 7.4). Fixed cells were washed in 0.1 M cacodylate buffer and post-fixed with 1% Osmium tetroxide (OsO4)/1.5% Potassium ferrocyanide (KFeCN6) for 1 h. The fixed cells were washed twice in water, once in maleate buffer, and incubated in the maleate buffer containing 1% uranyl acetate for lh. Cells were then washed twice in water and subsequently dehydrated in an alcohol gradient series (10 min each; 50%, 70%, 90%, 2×10 min 100%). The cells were then incubated in propyleneoxide for 1 h, infiltrated overnight in a 1:1 mixture of propyleneoxide and Spurr's low viscosity resin (Electron Microscopy sciences, Hatfield, Pa.) and polymerized at 60° C. for 48 h. Ultrathin sections (about 60 nm) were cut on a Reichert Ultracut-S microtome (Leica Microsystem, Wetzlar, Germany), picked up onto copper grids, and stained with lead citrate. Micrographs of the cells were taken using a JEOL 1200EX transmission electron microscope (Harvard Medical School EM facility).

[3] = tested on: exponential phase MRSA MW2 cells; test: Cell lysis by optical density; type: cell-based, S. aureus; details: 10 μg/mL, 4 h
MRSA MW2 cells = test: Bacterial membrane permeability assay (SYTOX Green); type: cell-based, S. aureus
Description: Bacterial membrane permeability assay. Exponential-phase or stationary-phase S. aureus MW2 cells prepared as described above under Killing kinetics assay and Persister killing assay, respectively, were washed 3 times with the same volume of PBS. The washed cells were adjusted to OD600=0.4 with PBS. SYTOX Green (Molecular Probes, Waltham, Mass., USA) was added to 10 mL of the diluted bacterial suspension to a final concentration of 5 μM and incubated for 30 min at room temperature in the dark. 50 μl of the bacterial/SYTOX Green suspension was mixed with 50 μl of phosphate buffered saline (PBS) containing twice the desired concentrations of compounds in black, clear-bottom, 96-well plates (Corning no. 3904). Fluorescence was measured at room temperature using a spectrophotometer (SpectraMax M2, Molecular Devices) with excitation and emission wavelengths of 485 nm and 525 nm, respectively. All experiments were conducted in biological triplicate.

[4] = tested on: Gram-positive bacteria including S. aureus, Bacilius subtilis, and Enterococcus faecium; details: previously described; cited from earlier work
[5] = tested on: exponential-phase S. aureus MW2; test: Killing kinetics assay; type: cell-based
Description: Killing kinetics assay. An overnight culture of S. aureus MW2 ^−was diluted in 25 mL TSB to a concentration of ˜10^5 CFU/mL. The diluted culture was grown to exponential-phase (˜2×10^7 CFU/mL) at 37° C. with shaking at 200 rpm. 1 mL of the exponential-phase culture was added to each well of a 96-well assay block (Corning Costar 3960) containing 1 mL of 2× of the desired concentrations of antibiotics dissolved in pre-warmed TSB at 37° C. The assay block was then incubated at 37° C. with shaking at 200 rpm. At every hour, 400 μl cultures were removed, washed once with PBS, serially diluted and spot-plated onto tryptic soy agar (TSA, BD) plates. The plates were incubated at 37° C. overnight, and colonies were counted to determine the titer of the cultures. These experiments were conducted in biological triplicate.

S. aureus MW2 [6] = test: Membrane fluidity assay (Laurdan GP); type: cell-based; details: 1 h
Description: Membrane fluidity assay. Bacterial membrane fluidity was estimated by slightly modifying previously described methods. An overnight culture of S. aureus MW2 was diluted 1:1,000 in 25 mL TSB. The diluted culture was grown to OD600˜1.5 at 37° C. with shaking at 200 rpm, followed by 10 min incubation with 10 μM Laurdan at room temperature in the dark (Sigma-Aldrich, Cat # 40227). The stained cell culture was washed with PBS 4 times and concentrated 2 times. 100 μL of the 2-fold concentrated culture was mixed with 100 μL of phosphate buffered saline (PBS) containing twice the desired concentrations of compounds in black, clear-bottom, 96-well plates (Corning no. 3904). After 1 h incubation at room temperature in the dark, the Laurdan fluorescence intensities were measured using a spectrophotometer (SpectraMax M2, Molecular Devices) with emission wavelengths of 435 nm and 490 nm upon excitation at 350 nm. The Laurdan GP was calculated using the formula GP=(I435−I490)/(I435+I490). All experiments were conducted in biological triplicate.

MRSA BF4 = test: MIC assay (micro-dilution); type: cell-based, S. aureus; details: Staphylococcus aureus; daptomycin-intermediate resistant MRSA strain BF4
Description: Minimal inhibitory concentration (MIC) assay. The MICs of antibiotics were determined by the standard micro-dilution method recommended by the Clinical and Laboratory Standards Institute. MIC assays were conducted in biological triplicate.

[7] = tested on: MRSA strain MW2 persisters; test: Deep-seated mouse thigh infection model, bacterial load; type: in vivo; details: 30 mg/kg each agent, every 12 h for 3 days from 24 h post-infection
Description: Deep-seated mouse thigh infection model. […] Mice were euthanized at 96 h post-infection. […] Thighs were homogenized in PBS, serially diluted with PBS, and spot-plated on TSA plates.

## Oc1c(Cl)cc(Cl)cc1Sc1cc(Cl)cc(Cl)c1O [bithionol, 6,6′-thio-bis-(2,4-dichlorophenol)]
[1]; 32 μg/mL (32× MIC)
  time to complete eradication of stationary-phase MRSA persisters: ≤ 2 h
[1]; 5×10^7 CFU/mL MRSA MW2 persisters
  concentration required to completely eradicate stationary-phase MRSA persisters: 32 µg/mL
[1]; FIG. 1C
  concentrations exhibiting significant killing activity against MRSA MW2 persisters: > 16 µg/mL
[1]; bithionol 8 μg/mL alone (FIGS. 1C, D)
  viability of MRSA persisters: do not lead to a significant decrease in the viability
S. aureus MW2 [2]
  TEM findings: disrupts MRSA membranes
[3]
  optical density of S. aureus cells (bacteriolytic activity): time-dependent decrease in optical density
MRSA MW2 cells; MRSA MW2 exponential-phase cells and/or persisters, in words
  SYTOX Green membrane permeabilization: dose-dependent membrane permeability
MRSA MW2 cells; decreased above 8 μg/mL
  concentration at which SYTOX Green fluorescence intensity was maximized: 4 µg/mL
[4]
  minimal inhibitory concentration (MIC): 8 to 15 µg/mL
[5]; 10 μg/mL (10× MIC)
  time to eradicate ~10^7 CFU/mL exponential-phase S. aureus MW2: ≤ 3 h
[5]; 10× MIC, compared with daptomycin and vancomycin
  rate of killing: comparable to daptomycin (at 10× MIC) but significantly faster than the killing kinetics of vancomycin
S. aureus MW2 [6]
  concentrations inducing a significant decrease in Laurdan GP: over 8 μg/mL
MRSA BF4
  MIC: 0.5 µg/mL (≈ 1.4 µM)
[7]
  effect on MRSA CFUs in the mouse thigh: no effect
